The source of these data is patent US20260325477A1, “METHODS OF TREATMENT USING DRY POWDER COMPOSITIONS OF TREPROSTINIL PRODRUGS” (Insmed Incorporated, priority 2024, published 2026).

Data set [1] is described as follows: Nonclinical safety and toxicology of TP. Type of data set: in vivo. From the text: (§1) Treprostinil palmitil (TP) is a hexadecyl ester prodrug of treprostinil (TRE). In the lung, TP is hydrolyzed by esterases to TRE and hexadecanol.
Data set [2] in a line: Nonclinical studies of TP: conversion, delivery, PK and PD.
Excerpt: as §1

For the next data set, the system named is rodent model of PAH. As to the kind of experiment: Rodent model of PAH. Particulars: inhibition of associated adverse pathology and pathophysiology. Type of data set: in vivo.
Excerpt: as §1

Data set [3] concerns subjects with pulmonary hypertension. Briefly: Phase 2 safety and efficacy study in subjects with pulmonary hypertension. Type of data set: in vivo, human. Here is the method: In a Phase 2 safety and efficacy study, the following doses of were investigated in subjects with pulmonary hypertension, including pulmonary arterial hypertension: 80 μg, 160 μg, 240 μg, 320 μg, 400 μg, 480 μg, and 640 μg. In this study, patients were administered a starting dose of 80 μg of the TPIP and the dose was titrated up to 640 μg according to FIG. 2.

Data set [4] is described as follows: Phase I pharmacokinetics of treprostinil after inhalation of the compound of Formula (II). It is filed as in vivo, human. Particulars: dose range of 112.5 μg to 675 μg. Here is the method: The term “Cmax” means the maximum (or peak) treprostinil serum concentration measured after a compound of Formula (I) or (II), an enantiomer or diastereomer thereof, or a pharmaceutically acceptable salt thereof is administered to the lungs of a subject via a dry powder composition described herein. In addition, Cmax may be measured after a single administration of a compound of Formula (I) or (II), an enantiomer or diastereomer thereof, or a pharmaceutically acceptable salt thereof, described herein, or treprostinil Cmax may be measured at steady state. Unless stated otherwise, Cmax refers to the average treprostinil Cmax measured after a single administration among a population of subjects (e.g., a population of PH patients).
The term “AUC” means the area under the plasma concentration time curve for treprostinil, measured from time 0 to a certain time post-administration to the lungs of a subject, calculated by a combination of linear and logarithmic trapezoidal methods (Linear up/log down method). […] In addition, treprostinil AUC may be measured after a single administration or at steady state values. Unless stated otherwise, AUC refers to the average AUC measured after a single administration among a population of subjects (e.g., a population of PH patients). […]

For a further data set, the system named is healthy adults. As to the kind of experiment: Phase I single-dose safety and tolerability of TPIP in healthy adults. As to conditions: single doses 112.5, 225, 450 and 675 μg. Type of data set: in vivo, human. Here is the method: Specifically, in a Phase I safety, tolerability, and PK study, healthy adults were administered single doses of 112.5 μg, 225 μg, 450 μg, and 675 μg of a compound of Formula (II).

On to `CCCCCCCCCCCCCCCCOC(=O)COc1cccc2c1C[C@H]1C[C@@H](O)[C@H](CC[C@@H](O)CCCCC)[C@H]1C2` [treprostinil palmitil], for which, in data set [1], the “preclinical safety or toxicological findings” value is given as “did not demonstrate concerning preclinical safety or toxicological findings”. In addition, in data set [2], the “PK and PD profile” value was “prolonged PK and PD profile”; the “delivery of treprostinil to the lungs and systemic circulation” value was “sustained delivery”. For the same molecule, in data set [2] (in vitro and in vivo), the “conversion from the prodrug to the active drug, treprostinil” value was “converted from the prodrug to the active drug, treprostinil”. The “efficacy in a rodent model of PAH” value in the data set on rodent model of PAH was “efficacious”. The tolerability entry in data set [3] (640 μg, highest dose administered in a clinical trial) is “well tolerated”. In data set [3] (all doses, 80 μg to 640 μg), the tolerability entry is given as “well tolerated”. In addition, the efficacy entry in data set [3] (higher doses) is “promising efficacy”. Further, the “pharmacokinetic (PK) profile, dose linearity” value in data set [4] was “linear”. For the same molecule, in the data set on healthy adults, the safety and tolerability entry is “safe and well-tolerated”; the “serious or severe TEAEs” value is given as “no serious or severe TEAEs were observed”.
